Assay results: EP1247803A2, “Indolinone compounds suitable for modulation of protein kinases” (Sugen, Inc., priority 1996, dated 1998)

Columns and labels:
PDGF-R = PDGF-R (Homo sapiens, UniProt P09619); experiment: PDGF-R ELISA; assay type: cell-based
Description: A PDGF-R ELISA is described in International Patent Publication No. WO 96/40116, published December 19, 1996 by Tang et al.

MET = MET biochemical kinase assay; set-up: species or system human; concentration or dose not given beside the values
Method in brief: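 Immunocaptured MET autophosphorylation, read colorimetrically (TMB) via HRP anti-phosphotyrosine antibody. Kinase reaction initiated with buffer containing ATP and divalent metals after compound addition to plate-bound receptor from lysates.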

FLK-1 receptor = target: T1, FLK-1 receptor (Mus musculus, UniProt P35918); experiment: FLK-1 ELISA (kinase activity of the FLK-1 receptor in FLK-1/NIH3T3 cells, VEGF stimulated); assay type: cell-based
T1 construct: expressed in transfected cells; host or cells: NIH3T3 C7#3
T1 sequence (P35918 20-1345): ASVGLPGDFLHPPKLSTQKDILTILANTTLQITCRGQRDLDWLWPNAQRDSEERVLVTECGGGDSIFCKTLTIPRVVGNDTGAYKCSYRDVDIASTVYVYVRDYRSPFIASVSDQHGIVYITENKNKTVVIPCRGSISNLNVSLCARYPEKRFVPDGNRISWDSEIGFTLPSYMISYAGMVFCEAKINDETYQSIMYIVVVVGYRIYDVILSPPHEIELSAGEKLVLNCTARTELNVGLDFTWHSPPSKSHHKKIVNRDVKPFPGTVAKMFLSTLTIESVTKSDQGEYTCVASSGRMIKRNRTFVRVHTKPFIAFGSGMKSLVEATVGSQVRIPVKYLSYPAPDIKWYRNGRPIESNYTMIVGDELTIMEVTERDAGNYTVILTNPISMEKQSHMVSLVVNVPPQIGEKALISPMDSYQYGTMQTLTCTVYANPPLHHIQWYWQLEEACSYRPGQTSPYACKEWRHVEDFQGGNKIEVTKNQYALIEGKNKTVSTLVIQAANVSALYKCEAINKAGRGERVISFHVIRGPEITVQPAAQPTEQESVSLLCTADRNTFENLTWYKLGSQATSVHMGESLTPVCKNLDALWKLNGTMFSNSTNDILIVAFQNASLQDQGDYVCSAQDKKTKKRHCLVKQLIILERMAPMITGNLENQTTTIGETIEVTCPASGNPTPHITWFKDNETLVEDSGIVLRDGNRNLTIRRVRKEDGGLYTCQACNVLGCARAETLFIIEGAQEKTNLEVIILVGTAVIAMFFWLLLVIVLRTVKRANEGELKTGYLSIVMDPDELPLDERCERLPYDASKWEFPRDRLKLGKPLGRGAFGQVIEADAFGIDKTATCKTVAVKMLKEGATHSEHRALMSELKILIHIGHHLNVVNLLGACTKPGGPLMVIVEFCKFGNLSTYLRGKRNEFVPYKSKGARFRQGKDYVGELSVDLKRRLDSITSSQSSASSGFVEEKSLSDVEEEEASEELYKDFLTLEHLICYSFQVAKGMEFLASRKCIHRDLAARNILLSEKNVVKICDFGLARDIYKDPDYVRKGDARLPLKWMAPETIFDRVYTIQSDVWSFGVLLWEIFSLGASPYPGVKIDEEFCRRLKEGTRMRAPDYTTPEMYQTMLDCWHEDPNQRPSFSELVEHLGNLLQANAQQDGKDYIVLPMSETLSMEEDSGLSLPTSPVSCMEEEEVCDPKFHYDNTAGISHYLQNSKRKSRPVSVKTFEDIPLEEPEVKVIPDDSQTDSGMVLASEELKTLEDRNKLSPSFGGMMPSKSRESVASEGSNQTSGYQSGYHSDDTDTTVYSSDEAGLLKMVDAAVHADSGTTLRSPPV
Method in brief: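 FLK-1-expressing NIH3T3 C7#3 cells, starved overnight in 0.1% FBS medium, were treated with compounds at a 1:200 final dilution (0.5% DMSO) for 2 h at 37 °C, with VEGF stimulation. FLK-1 kinase activity was read by ELISA on anti-rabbit IgG plates using affinity-purified anti-FLK-1 antiserum.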

PDGF-R, sequence (P09619 33-1106, species assumed): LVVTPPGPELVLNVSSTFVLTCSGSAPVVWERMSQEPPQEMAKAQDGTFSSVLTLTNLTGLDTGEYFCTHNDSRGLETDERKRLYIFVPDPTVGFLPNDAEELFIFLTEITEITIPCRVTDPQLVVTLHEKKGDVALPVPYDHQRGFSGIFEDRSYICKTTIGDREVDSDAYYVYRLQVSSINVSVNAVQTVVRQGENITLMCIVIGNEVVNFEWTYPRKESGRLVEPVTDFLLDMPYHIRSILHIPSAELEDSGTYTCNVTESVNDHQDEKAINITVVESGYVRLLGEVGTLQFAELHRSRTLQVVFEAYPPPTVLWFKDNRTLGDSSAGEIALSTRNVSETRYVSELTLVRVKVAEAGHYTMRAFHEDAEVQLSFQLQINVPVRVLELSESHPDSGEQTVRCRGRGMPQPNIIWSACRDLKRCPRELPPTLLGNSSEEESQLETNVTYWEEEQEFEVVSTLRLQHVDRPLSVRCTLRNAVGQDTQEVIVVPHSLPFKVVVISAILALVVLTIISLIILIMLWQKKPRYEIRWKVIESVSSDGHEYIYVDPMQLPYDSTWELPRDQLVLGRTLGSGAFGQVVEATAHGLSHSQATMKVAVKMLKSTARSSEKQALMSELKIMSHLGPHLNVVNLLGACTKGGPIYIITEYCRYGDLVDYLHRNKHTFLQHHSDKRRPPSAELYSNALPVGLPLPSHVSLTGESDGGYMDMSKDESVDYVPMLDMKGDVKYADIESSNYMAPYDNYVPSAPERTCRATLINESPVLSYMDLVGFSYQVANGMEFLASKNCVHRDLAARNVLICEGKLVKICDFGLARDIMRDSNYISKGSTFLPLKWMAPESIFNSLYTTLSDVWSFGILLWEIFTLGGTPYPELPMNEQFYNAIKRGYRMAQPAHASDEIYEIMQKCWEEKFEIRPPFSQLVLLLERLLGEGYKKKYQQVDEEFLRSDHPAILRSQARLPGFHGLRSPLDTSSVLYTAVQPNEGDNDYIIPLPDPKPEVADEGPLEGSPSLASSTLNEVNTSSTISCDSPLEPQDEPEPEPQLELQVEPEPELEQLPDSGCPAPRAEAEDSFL

Row | Structure (SMILES) | PDGF Kinase %Inhibition (PDGF-R) | Met Kinase % Inhibition (MET) | Fik Kinase %Inhibition (FLK-1 receptor)
1 | Cc1c(Br)ccc2c1C(=Cc1cc(Cl)ccc1O)C(=O)N2 [10734/C04] | 24.5% | 90.7% | -37.6%
2 | COc1c(C)cc(C=C2C(=O)Nc3ccc(S(=O)(=O)Nc4ccc(C(F)(F)F)cc4)cc32)cc1C [10733/E06] | 22.4% | 10.4% | 13.5%
3 | COc1cc(Br)cc(C=C2C(=O)Nc3ccc(S(=O)(=O)N4CCOCC4)cc32)c1O [10733/F08] | -32.4% | 66.6% | -13.2%
4 | COc1cc(Br)cc(C=C2C(=O)Nc3ccc(CCCl)cc32)c1O [10733/G08] | 68.7% | 79.0% | 2.5%
5 | O=C1Nc2ccc(S(=O)(=O)Nc3ccc(C(F)(F)F)cc3)cc2C1=Cc1ccc(Cl)c([N+](=O)[O-])c1 [10718/E08] | – | 69.6% | 9.2%
6 | CNS(=O)(=O)c1ccc2c(c1)C(=Cc1cc(Cl)cc(Cl)c1O)C(=O)N2 [10734/D03] | 24.1% | 78.6% | 17.4%
7 | O=C1Nc2c(Br)cc(Br)cc2C1=Cc1cc(Br)cc(Br)c1O [10734/A07] | 21.9% | 89.3% | -9.4%
8 | CNS(=O)(=O)c1ccc2c(c1)C(=Cc1ccc(C(C)(C)C)cc1)C(=O)N2 [10734/D10] | 9.9% | 20.6% | 11.1%
9 | O=C1Nc2ccc(S(=O)(=O)Nc3ccc(C(F)(F)F)cc3)cc2C1=Cc1cc(Cl)cc(Cl)c1O [10734/E03] | 27.2% | 99.3% | 26.9%
10 | O=C1Nc2ccc(I)cc2C1=Cc1ccc([N+](=O)[O-])cc1 [10734/B06] | 0.2% | 91.2% | -0.9%
11 | CCN(CC)c1ccc(C=C2C(=O)Nc3ccc(I)cc32)c(O)c1 [10734/B05] | 56.3% | 67.8% | -2.3%
12 | CCN(CC)c1ccc(C=C2C(=O)Nc3ccc(S(=O)(=O)NC)cc32)c(O)c1 [10734/D05] | 8.2% | 55.0% | 2.4%
13 | O=C1Nc2ccc(S(=O)(=O)Nc3ccc(C(F)(F)F)cc3)cc2C1=Cc1cc(Br)ccc1O [10733/E09] | 35.8% | 62.6% | 13.4%
14 | Cc1[nH]c(C=C2C(=O)Nc3c(Br)cc(Br)cc32)c(Br)c1Br [10717/A11] | – | 64.8% | -5.8%
15 | O=C1Nc2c(Br)cc(Br)cc2C1=Cc1cc(Cl)ccc1O [10734/A04] | 11.7% | 68.0% | 0.6%
16 | O=C1Nc2ccc(S(=O)(=O)Nc3ccc(C(F)(F)F)cc3)cc2C1=Cc1ccc([N+](=O)[O-])o1 [10718/E11] | – | 37.5% | 12.1%
17 | COc1c(C(C)(C)C)cc(C=C2C(=O)Nc3ccc(S(=O)(=O)N4CCOCC4)cc32)cc1C(C)(C)C [10733/F04] | -28.7% | 65.1% | 21.4%
18 | O=C1Nc2ccc(CCCl)cc2C1=Cc1cc([N+](=O)[O-])ccc1O [10733/G10] | -58.0% | 41.9% | 12.7%
19 | CC(C)(C)c1cc(C=C2C(=O)Nc3ccc(CCCl)cc32)cc(C(C)(C)C)c1OCc1ccccc1 [10733/G05] | -1.1% | 1.8% | 19.2%
20 | O=C1Nc2ccc(S(=O)(=O)Nc3ccc(C(F)(F)F)cc3)cc2C1=Cc1ccco1 [10718/E10] | – | 60.8% | 15.2%
21 | COc1cc(Br)cc(C=C2C(=O)Nc3ccc(S(=O)(=O)Nc4ccc(C(F)(F)F)cc4)cc32)c1O [10733/E08] | 75.2% | 81.1% | -5.1%
22 | COc1c(C(C)(C)C)cc(C=C2C(=O)Nc3ccc(CCCl)cc32)cc1C(C)(C)C [10733/G04] | 11.9% | 20.3% | 11.5%
23 | CC(C)(C)c1cc(C=C2C(=O)Nc3ccc(S(=O)(=O)N4CCOCC4)cc32)cc(I)c1OCc1ccccc1 [10733/F02] | 3.8% | 71.6% | -15.7%
24 | CCOC(=O)c1cc(C=C2C(=O)Nc3ccc(S(=O)(=O)Nc4ccc(C(F)(F)F)cc4)cc32)oc1C [10718/E06] | – | 33.4% | 15.4%

Row | Structure (SMILES) | PDGF Kinase %Inhibition (PDGF-R) | Met Kinase % Inhibition (MET) | Fik Kinase %Inhibition (FLK-1 receptor)
25 | COc1c(O)ccc(C=C2C(=O)Nc3ccc(S(=O)(=O)N4CCOCC4)cc32)c1[N+](=O)[O-] [10733/F11] | -17.8% | 44.4% | 4.1%
26 | CCOc1cccc(C=C2C(=O)Nc3ccc(S(=O)(=O)NC)cc32)c1O [10734/D02] | 6.4% | 46.0% | -11.5%
27 | CCOc1cccc(C=C2C(=O)Nc3ccc(Br)c(C)c32)c1O [10734/C02] | 36.0% | 78.6% | -3.9%
28 | CC(C)(C)c1cc(C=C2C(=O)Nc3ccc(S(=O)(=O)N4CCOCC4)cc32)cc(C(C)(C)C)c1OCc1ccccc1 [10733/F05] | -25.1% | 65.1% | 26.2%
29 | COc1c(O)ccc(C=C2C(=O)Nc3ccc(CCCl)cc32)c1[N+](=O)[O-] [10733/G11] | -4.4% | 32.6% | 3.3%
30 | COc1c(C(C)(C)C)cc(C=C2C(=O)Nc3ccc(S(=O)(=O)Nc4ccc(C(F)(F)F)cc4)cc32)cc1C(C)(C)C [10733/E04] | -13.7% | 17.5% | 2.1%
31 | O=C1Nc2c(Br)cc(Br)cc2C1=Cc1cccc(F)c1O [10734/A08] | 9.1% | 71.5% | 0.1%
32 | Cc1c(Br)ccc2c1C(=Cc1cc(Br)cc(Br)c1O)C(=O)N2 [10734/C07] | 32.0% | 96.8% | -2.7%
33 | O=C1Nc2ccc(I)cc2C1=Cc1cc(Br)cc(Br)c1O [10734/B07] | 18.8% | 93.2% | 9.1%
34 | CNS(=O)(=O)c1ccc2c(c1)C(=Cc1ccc([N+](=O)[O-])cc1)C(=O)N2 [10734/D06] | -9.1% | 30.6% | 0.0%
35 | CCN(CC)c1ccc(C=C2C(=O)Nc3ccc(Br)c(C)c32)c(O)c1 [10734/C05] | 3.8% | 52.7% | -10.3%
36 | O=C1Nc2ccc(I)cc2C1=Cc1ccc(Br)s1 [10734/B11] | -5.5% | 83.6% | 12.6%
37 | O=C1Nc2ccc(CCCl)cc2C1=Cc1cc(Br)ccc1O [10733/G09] | -17.0% | 41.4% | 77.8%
38 | CC(C)(C)c1ccc(C=C2C(=O)Nc3ccc(I)cc32)cc1 [10734/B10] | 7.7% | 82.6% | 15.7%
39 | CNS(=O)(=O)c1ccc2c(c1)C(=Cc1cc(Cl)ccc1O)C(=O)N2 [10734/D04] | 13.5% | 46.9% | 6.1%
40 | O=C1Nc2ccc(S(=O)(=O)Nc3ccc(C(F)(F)F)cc3)cc2C1=Cc1ccc2ccccc2c1O [10718/E04] | – | 87.7% | 15.1%
41 | Cc1c(O)ccc(C=C2C(=O)Nc3ccc(S(=O)(=O)Nc4ccc(C(F)(F)F)cc4)cc32)c1O [10718/E09] | – | 80.8% | 0.9%
42 | Cc1cc(C=C2C(=O)Nc3ccc(S(=O)(=O)Nc4ccc(C(F)(F)F)cc4)cc32)cc(C)c1OCc1ccccc1 [10733/E07] | 29.3% | -10.1% | 13.2%
43 | CNS(=O)(=O)c1ccc2c(c1)C(=Cc1ccc(Br)s1)C(=O)N2 [10734/D11] | 17.0% | 33.9% | 9.8%
44 | CNS(=O)(=O)c1ccc2c(c1)C(=Cc1ccc(O)c(Br)c1)C(=O)N2 [10734/D09] | 42.2% | 88.0% | -11.6%
45 | Cc1c(Br)ccc2c1C(=Cc1cccc(F)c1O)C(=O)N2 [10734/C08] | 5.5% | 93.2% | -34.2%
46 | COC(=O)c1[nH]c(C)c(C=C2C(=O)Nc3ccc(S(=O)(=O)Nc4ccc(C(F)(F)F)cc4)cc32)c1C(=O)OC [10718/E07] | – | 80.5% | 15.6%
47 | CCOC(=O)CCc1c(C(=O)OCC)[nH]c(C=C2C(=O)Nc3ccc(S(=O)(=O)Nc4ccc(C(F)(F)F)cc4)cc32)c1CC(=O)OCC [10718/E05] | – | 32.2% | 16.1%
